US6225478A, “Iridoid derivatives and neovascularization inhibitors containing the same as active ingredient” (Tsumura & Co., priority 1999, dated 2001)
Values after ≈ are worked out from the molar mass of the structure shown. Like-named read-outs stand apart in the source and are kept apart here.

Columns and labels:
Format in all cases: cell-based
[1] = system: human umbilical-vein endothelial cells (HUVEC); assay: Cell Proliferation Assay (CPA) Test, HUVEC, MTT; settings: Homo sapiens, M199 (2+) medium, read-out: CPA (IC50 μg/ml)
Procedure: (§1) Furthermore, the sample liquids of compounds used in the CPA and CMA tests were prepared in the manner described below. Firstly, after weighing out each compound, a calculated amount of DMSO was added. After dissolving the compound in the DMSO, phosphate buffered physiological saline (PBS (-)) was added to bring the sample concentration to 1 mg/ml in PBS (-). The amount of DMSO used to dissolve the compounds was adjusted in advance to that the concentration of DMSO at that time was 5%. The resulting liquids were diluted 10-fold with 5% DMSO-PBS (-) solution to prepare sample solutions having a concentration of 0.1 mg/ml. In the TFA test, 320 μl of the prepared 1 mg/ml sample solutions were removed followed by addition of 680 μl of PBS (-) to prepare samples having a concentration of […]. Moreover, 100 μl of this solution was removed followed by addition of 900 μl of PBS (-) to dilute 10-fold and prepare samples having a concentration of 1 μg/ml. P [Cell Proliferation Assay (CPA) Test]
100 μl of the 7th subculture obtained from first generation human umbilical-vein endothelial cells (HUVEC) were disseminated in the wells (N=3) of a 96-well plate (Iwaki, Cat. #4860-010) at a cell concentration of 5×10^4 cells/ml. M-199 medium containing +20% FCS, 10 ng/ml of b-FGF and 10 ng/ml of EGF (abbreviated as "M199 (2+)") was used for the medium.
After culturing for 24 hours at 37° C. in the presence of 5% CO2 under the above conditions, 20 μl/well of MTT solution (solution containing 5 mg/ml of PBS (-)) were added to the control well followed by accurately culturing for 4 hours at 37° C. in the presence of 5% CO2. Following completion of culturing, 100 μl/well of a stop solution (0.001 N aqueous HCl solution containing 10% SDS) were added. On the other hand, 10 μl/well of sample solutions at concentrations of 1 mg/ml and 0.1 mg/ml were added to the other wells.
After culturing for 24 hours at 37° C. in the presence of 5% CO2, the medium was replaced and 100 μl/well of M199 (2+) were added. The samples were also replaced in each well at this time.
Moreover, after additionally culturing for 48 hours at 37° C. in the presence of 5% CO2, 20 μl/well of MTT solution were added to the wells containing sample and the control well followed by accurately culturing for 4 hours at 37° C. and adding 100 μl/well of stop solution.

[2] = system: human umbilical-vein endothelial cells (HUVEC); assay: Cell Migration Assay (CMA) Test, HUVEC (% relative to control); settings: Homo sapiens, HUVEC, 24 hours, 60% or less = remarkable inhibition, read-out: CMA (% relative to control); for activity at 1 µg/mL: 1 μg/ml; for activity at 10 µg/mL: 10 μg/ml
Procedure: as §1
After disseminating the 7th subculture of HUVEC obtained from the first generation in the same manner as above at 4 ml/well (3.0×10^5 cells/well) in a collagen-coated 6-well plate (NUNC), the cells were cultured for 48 hours at 37° C. in the presence of 5% CO2. The cells reached nearly a completely confluent state as a result of this culturing.
A double-edged, disposable razor blade was divided into four sections, of which one of those sections was pinched between a pair of forceps. Using this piece of razor blade, the cell surface in the above confluent state was scraped off. Two areas of the cell surface were scraped off in each well.
After washing the surface of the wells from which the cells had been scraped off with medium, 4.0 ml of fresh M199 (2+) medium were added followed by addition of 40 μl or 4 μl of sample solution (1 mg/ml). The cells were cultured for 24 hours at 37° C. in the presence of 5% CO2. After discarding the culture liquid, the cells were fixed for 30 minutes with methanol. Next, after staining the cells for 4 hours with Giemsa stain, the plates were washed with tap water and air dried.
Measurement of cell migration was performed by microscopically counting the number of cells that had newly migrated within the range of a 1 mm×1 mm block. […] The total number of cells counted in blocks 1 through 5 were then totaled to determine the overall total number of cells. Four fields were counted for each well.
Evaluation was performed determining the cell migration (%) according to the following formula.
Cell migration rate=number of migrating cells to which sample was added×100/number of migrating of control (+)
Control (+) indicates the number of migrating cells in the control well containing M199 (2+).

[3] = system: human umbilical-vein endothelial cells (HUVEC); assay: Tube Formation Assay (TFA) Test, HUVEC in collagen gel; settings: Homo sapiens, HUVEC, 20 hours, 40% or less judged remarkable, read-out: TFA (inhibition rate, %); for inhibition at 1 µg/mL: 1 μg/ml; for inhibition at 10 µg/mL: 10 μg/ml
Outline: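 Inhibition rate (%) of tube formation is computed from tube lengths against control (+) and control (-), measured after 20 h at 37 °C in M-199 with 20% FCS, 30 ng/ml b-FGF and 0.1 μM PMA. Samples were applied to HUVEC on collagen and covered by a second collagen layer (double-layer gel).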

SMILES: COC(=O)C1=CO[C@@H](OC(=O)NC(=O)c2ccccc2)[C@@H]2[C@@H]1C[C@@H]1O[C@]21C [compound 41, (1S,4aS,6S,7R,7aR)-1-(benzoylcarbamoyloxy)-6,7-epoxy-1,4a,5,6,7,7a-hexahydro-7-methylcyclopenta [c] pyrane-4-carboxylic acid methylester]
- IC50 [1]: 56.1 µg/mL (≈ 150 µM)
- activity at 1 µg/mL [2]: 102%
- activity at 10 µg/mL [2]: 95%
- inhibition at 1 µg/mL ([3]; 20 h): 46.7%
- inhibition at 10 µg/mL ([3]; 20 h): 37.6%

SMILES: CNC(=O)OC1OC=C(C(=O)N2CC(C)OC(C)C2)C2CC3OC3(C)C12 [compound 24, (1S,4aS,6S,7R,7aR)-6,7-epoxy-1,4a,5,6,7,7a-hexahydro-7-methyl-1-(methylcarbamoyloxy) cyclopenta [c]-pyrane-4-carboxylic acid 2,6-dimethylmorpholylamide]
- IC50 [1]: > 100 µg/mL
- activity at 1 µg/mL [2]: 96.9%
- activity at 10 µg/mL [2]: 112%
- inhibition at 1 µg/mL ([3]; 20 h): 41.3%
- inhibition at 10 µg/mL ([3]; 20 h): 24.2%

SMILES: CNC(=O)OC1OC=C(C(=O)N2CCN(CCO)CC2)C2CC3OC3(C)C12 [compound 22, (1S,4aS,6S,7R,7aR)-6,7-epoxy-1,4a,5,6,7,7a-hexahydro-7-methyl-1-(methylcarbamoyloxy) cyclopenta [c]-pyrane-4-carboxylic acid 4-(2-hydroxyethyl) piperazylamide]
- IC50 [1]: > 100 µg/mL
- activity at 1 µg/mL [2]: 93.4%
- activity at 10 µg/mL [2]: 97.7%
- inhibition at 1 µg/mL ([3]; 20 h): 50.8%
- inhibition at 10 µg/mL ([3]; 20 h): 74.9%

SMILES: CC[C@]12O[C@H]1C[C@@H]1C(C(=O)OC)=CO[C@@H](OC(=O)NC)[C@@H]12 [compound 43, (1S,4aS,6s,7R,7aR)-6,7-epoxy-7-ethyl-1,4a,5,6,7,7a-1-hexahydro-1-(methylcarbamoyloxy) cyclopenta [c] pyrane-4-carboxylic acid methylester]
- IC50 [1]: > 100 µg/mL
- activity at 1 µg/mL [2]: 99.9%
- activity at 10 µg/mL [2]: 89.3%
- inhibition at 1 µg/mL ([3]; 20 h): 12.4%
- inhibition at 10 µg/mL ([3]; 20 h): 9.1%

SMILES: CNC(=O)OCC12O[C@H]1C[C@@H]1C(C(=O)OC)=CO[C@@H](OC(=O)NC)C12 (stereo in doubt) [compound 48, (1S,4aS,6S,7R,7aR)-6,7-epoxy-1-(methylcarbamoyloxy)-7-(methylcarbamoyloxymethyl)-1,4a,5,6,7,7a-hexahydrocyclopenta [c] pyrane-4-carboxylic acid methylester]
- IC50 [1]: > 100 µg/mL
- activity at 1 µg/mL [2]: 93.3%
- activity at 10 µg/mL [2]: 107%
- inhibition at 1 µg/mL ([3]; 20 h): 51.5%
- inhibition at 10 µg/mL ([3]; 20 h): 54.1%

SMILES: CCCCCC[C@]12O[C@H]1C[C@@H]1C(C(=O)OC)=CO[C@@H](OC(=O)NC)[C@@H]12 [compound 44, (1S,4aS,6S,7R,7aR)-6. 7-epoxy-7-n-hexyl-1,4a,5,6,7,7a-hexahydro-1-(methylcarbamoyloxy) cyclopenta [c] pyrane-4-carboxylic acid methy:lester]
- IC50 [1]: > 100 µg/mL
- activity at 1 µg/mL [2]: 99.4%
- activity at 10 µg/mL [2]: 98.2%
- inhibition at 1 µg/mL ([3]; 20 h): 69.7%
- inhibition at 10 µg/mL ([3]; 20 h): 71.4%

SMILES: CNC(=O)O[C@@H]1OC=C(C(=O)OC)[C@H]2CC[C@@]3(CO3)[C@@H]12 [compound 52, (1S,4aS,7R,7aR)-1-(methylcarbamoyloxy)-1,4a,5,6,7,7a-hexahydrospiro [cyclopenta [c]pyrane-7(1H),2'-oxirane]-4-carboxylic acid methylester]
- IC50 [1]: > 100 µg/mL
- activity at 1 µg/mL [2]: 101%
- activity at 10 µg/mL [2]: 103%
- inhibition at 1 µg/mL ([3]; 20 h): 21.7%
- inhibition at 10 µg/mL ([3]; 20 h): -6.5%

SMILES: CN(Cc1cnc2nc(N)nc(N)c2n1)c1ccc(C(=O)N[C@@H](CCC(=O)O)C(=O)O)cc1 [MTX, Methotrexate, reference compound]
- IC50 [1]: 0.04 µg/mL (≈ 0.088 µM)
- activity at 1 µg/mL [2]: 102%
- activity at 10 µg/mL [2]: 103%
- inhibition at 1 µg/mL [3]: 37.5%
- inhibition at 10 µg/mL [3]: 42.6%

SMILES: CNC(=O)O[C@@H]1OC=C(C(=O)O)[C@H]2C[C@@H]3O[C@]3(C)[C@H]12 [compound 1, (1S,4aS,6S,7R,7aR)-6,7-epoxy-1,4a,5,6,7,7a-hexahydro-7-methyl-1-(methylcarbamoyloxy) cyclopenta [c]-pyrane-4-carboxylic acid]
- IC50 [1]: > 100 µg/mL
- activity at 1 µg/mL [2]: 98.5%
- activity at 10 µg/mL [2]: 93.5%
- inhibition at 1 µg/mL ([3]; 20 h): 49.8%
- inhibition at 10 µg/mL ([3]; 20 h): 37.8%

SMILES: CNC(=O)OC1OC=C(C(=O)N2CCCCC2)C2CC3OC3(C)C12 [compound 26, (1S,4aS,6S,7R,7aR)-6,7-epoxy-1,4a,5,6,7,7a-hexahydro-7-methyl-1-(methylcarbamoyloxy) cyclopenta [c]-pyrane-4-carboxylic acid piperidylamide]
- IC50 [1]: > 100 µg/mL
- activity at 1 µg/mL [2]: 84%
- activity at 10 µg/mL [2]: 104%
- inhibition at 1 µg/mL ([3]; 20 h): 41.2%
- inhibition at 10 µg/mL ([3]; 20 h): 30.8%

SMILES: COC(=O)C1=COC(OC(=O)N(C)C)C2C1CC1OC12C (stereo not shown) [compound 31]
- IC50 [1]: > 100 µg/mL
- activity at 1 µg/mL [2]: 97.2%
- activity at 10 µg/mL [2]: 107%
- inhibition at 1 µg/mL ([3]; 20 h): 15.2%
- inhibition at 10 µg/mL ([3]; 20 h): 26.5%

SMILES: COC(=O)C1=CO[C@@H](OC(=O)NCCCl)[C@@H]2[C@@H]1C[C@@H]1O[C@]21C [compound 32, (1S,4aS,6S,7R,7aR)-1-[(2-chloroethyl)carbamoyloxy]-6,7-epoxy-1,4a,5,6,7,7a-hexahydro-7-methylcyclopenta [c] pyrane-4-carboxylic acid methylester]
- IC50 [1]: > 100 µg/mL
- activity at 1 µg/mL [2]: 93%
- activity at 10 µg/mL [2]: 97%
- inhibition at 1 µg/mL [3]: 68.8%
- inhibition at 10 µg/mL [3]: 30%

SMILES: CNC(=O)O[C@@H]1OC=C(C(=O)OC2CCCCC2)[C@H]2C[C@@H]3O[C@]3(C)[C@H]12 [compound 14, (1S,4aS,6S,7R,7aR)-6,7-epoxy-1,4a,5,6,7,7a-hexahydro-7-methyl-1-(methylcarbamoyloxy) cyclopenta [c]-pyrane-4-carboxylic acid cyclohexylester]
- IC50 [1]: > 100 µg/mL
- activity at 1 µg/mL [2]: 99.4%
- activity at 10 µg/mL [2]: 102%
- inhibition at 1 µg/mL ([3]; 20 h): 38.2%
- inhibition at 10 µg/mL ([3]; 20 h): 48.7%

SMILES: CNC(=O)O[C@@H]1OC=C(C(=O)OC)[C@H]2CC[C@]3(CO3)[C@@H]12 [compound 53, (1S,4aS,7S,7aR)-1-(methylcarbamoyloxy)-1,4a,5,6,7,7a-hexahydrospiro [cyclopenta [c]pyrane-7(1H),2'-oxirane]-4-carboxylic acid methylester]
- IC50 [1]: > 100 µg/mL
- activity at 1 µg/mL [2]: 100%
- activity at 10 µg/mL [2]: 94.1%
- inhibition at 1 µg/mL ([3]; 20 h): 26%
- inhibition at 10 µg/mL ([3]; 20 h): 9.7%
